Measured values taken from the supplement of paper PMC10307832.

Experiments:
[1] = compound: Cn1c(=O)n(-c2ccc(C(C)(C)C#N)cc2)c2c3cc(-c4cnc5ccccc5c4)ccc3ncc21 [Dactolisib] + Cc1nc(Nc2ncc(C(=O)Nc3c(C)cccc3Cl)s2)cc(N2CCN(CCO)CC2)n1 [Dasatinib] (partner 0.075 µM); assay: relative viability (nuclei count vs DMSO), 5 days (fraction); higher = more cells survive
Procedure, shortened: (§1)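 Nuclei were stained with Hoechst during a one-step fixation (final 0.05% Triton X-100, 1% formaldehyde, 1 ug/ml Hoechst) carried out 5 days after dosing, then counted on 4× images. The cells, lung cancer lines in 1536-well plates, had been dosed by pin tool the day after seeding with one drug alone or a fixed anchor-drug dose plus five library-drug doses (not always all listed) in √10 steps. Relative viability is the nuclei count in treated wells divided by that in vehicle wells, and each value is the median of duplicate plates.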

[2] = compound: C1CCC(CC1)N(CCNCCC2=C3C(=C(C=C2)O)NC(=O)CO3)C(=O)CCNCCC4=CC(=C(C=C4)Cl)Cl [AZ505] + CC(=O)Nc1cccc(-n2c(=O)n(C3CC3)c(=O)c3c(Nc4ccc(I)cc4F)n(C)c(=O)c(C)c32)c1 [Trametinib] (partner 0.02 µM); assay: as above
Procedure, shortened: as §1

Cell Line | relative viability ([1]; first compound 0.002 µM) | relative viability ([1]; first compound 0.006325 µM) | relative viability ([1]; first compound 0.02 µM) | relative viability ([1]; first compound 0.06325 µM) | relative viability ([1]; first compound 0.2 µM) | relative viability ([2]; first compound 0.08 µM) | relative viability ([2]; first compound 0.253 µM) | relative viability ([2]; first compound 0.8 µM) | relative viability ([2]; first compound 2.53 µM) | relative viability ([2]; first compound 8 µM)
NCI-H1437 | 0.378 | 0.426 | 0.378 | 0.358 | 0.227 | 0.504 | 0.472 | 0.473 | 0.662 | 0.568
COR-L23 | 0.634 | 0.471 | 0.543 | 0.169 | 0.144 | 0.45 | 0.516 | 0.519 | 0.534 | 0.482
ABC-1 | 0.57 | 0.486 | 0.416 | 0.392 | 0.282 | – | – | – | – | –
NCI-H522 | 0.993 | 0.791 | 0.822 | 0.689 | 0.581 | 0.71 | 0.726 | 0.945 | 0.842 | 0.8
NCI-H838 | 0.261 | 0.259 | 0.247 | 0.248 | 0.224 | 0.487 | 0.464 | 0.505 | 0.523 | 0.479
SW 900 | 0.431 | 0.455 | 0.694 | 0.265 | 0.174 | 0.554 | 0.846 | 0.682 | 0.72 | 0.813
A-427 | 0.841 | 0.645 | 0.668 | 0.436 | 0.352 | 0.705 | 0.776 | 0.631 | 0.738 | 0.743
NCI-H1792 | 0.752 | 0.724 | 0.724 | 0.338 | 0.206 | 0.426 | 0.426 | 0.482 | 0.422 | 0.435
LCLC-97TM1 | 0.811 | 0.85 | 0.858 | 0.853 | 0.741 | 0.208 | 0.156 | 0.166 | – | 0.191
LCLC-103H | 0.529 | 0.422 | 0.45 | 0.429 | 0.307 | 0.714 | 0.625 | 0.604 | 0.669 | 0.69
PC-3 [JPC-3] | 1.1 | 0.941 | 0.911 | 1.03 | 0.885 | 0.596 | – | 0.694 | 0.704 | 0.693
BEN | 0.333 | 0.288 | 0.307 | 0.329 | 0.262 | 0.971 | 1.08 | 0.972 | 1 | 1.08
NCI-H1666 | 0.877 | 0.793 | 0.791 | 0.677 | 0.588 | 0.878 | 0.873 | 0.83 | 0.838 | 0.781
LC-2-ad | 0.495 | 0.486 | 0.491 | 0.349 | 0.297 | 0.844 | 0.885 | 0.894 | 0.889 | 0.947
SW 1573 | 0.627 | 0.493 | 0.306 | 0.146 | 0.119 | 0.536 | 0.657 | 0.515 | 0.474 | 0.543
ChaGo-K-1 | 0.584 | 0.56 | 0.597 | 0.523 | 0.556 | 0.838 | 0.918 | 0.871 | 0.846 | 0.91
COR-L 105 | 0.294 | 0.293 | 0.309 | 0.2 | 0.202 | 0.403 | 0.452 | 0.446 | 0.428 | 0.476
